Experiment [1] deals with T1, I50V/A71V mutant protease (Human immunodeficiency virus type 1 group M subtype B, UniProt P12497, A559V/I538V/Q495K).
T1 construct: the gene encoding the desired HIV-1 protease was subcloned into the heat-inducible pXC35 expression vector; made in house
More on the design: method as in Lockbaum et al. (ACS Infect Dis. 2019 Feb 8; 5 (2): 316–325). To be noted: I50V/A71V drug-resistant protease variant; previously reported; ref Lockbaum et al. (ACS Infect Dis. 2019 Feb 8; 5 (2): 316–325); cited from earlier work.

The test system of experiment [2] is HIV-1 NL4-3 wild-type virus. In words: Selection for resistance in CEMx174 culture with escalating inhibitor, start wild-type virus, Primer ID deep sequencing. In kind it is cell-based. The settings on record: passage 75, [PI] 5000 nM. The method, then:
. The selection experiments were performed under two separate starting conditions: first when the starting virus was generated from the NL4-3 clone (this clone closely approximates the clade B consensus for the protease amino acid sequence and will be referred to as ‘wild type’), then again when the starting virus was a mixture of 26 isogenic viruses each with a single mutation associated with drug resistance in the NL4-3 background. […]. For technical reasons, only five of the selections starting with the mixture of mutants reached an inhibitor concentration as high as 400 nM and are reported here (Figure 2—figure supplement 3).
Resistance mutations selected in the protease coding domain during the escalating selective pressure of increasing PI concentration were examined at various timepoints using a next-generation sequencing (NGS) protocol that included Primer ID with the MiSeq platform ([Zhou et al., 2015]). We first examined the sequence of the most abundant variant in each of the two selection schemes present at the highest inhibitor concentration reached (Figure 2A). For those selections that reached 5 μM, 8–14 mutations were present in the most abundant variant. Typically the next two most abundant variants in the population differed by a single amino acid, and on average the three most abundant variants in the 5 μM cultures accounted for 88% of the total viral population (Figure 2—source data 1). Evolution of resistance followed two pathways, one based on I50V and one based on I84V. In three cultures, V2wt, V5wt, and V2mut (which reached either 4 or 5 μM final drug concentration; V2wt indicates the virus pool selected with UMASS-2 starting with wild-type virus), these two mutations, I84V and I50V, became linked on the same genome (Figure 2A) showing they are not mutually exclusive; […].
An aliquot of 3 × 10^6 CEMx174 cells was incubated at 37°C for 2–3 hr with 250 µl of a virus stock generated from the HIV-1 infectious molecular clone pNL4-3. The culture volume was then brought to 10 ml with RPMI medium. […] After 48 hr and every 48 hr after, the cells were pelleted by centrifugation and 10 ml of fresh medium and inhibitors were added. When the culture had undergone extensive cytopathic effect (CPE) indicative of viral replication, the supernatant medium and the cells were harvested separately and stored at –80°C. The virus-containing supernatant was used to start the next round of infection, and after several rounds at the initial concentration, the inhibitor concentration was increased 1.5-fold at each subsequent round of virus passage.
We used the PID protocol to prepare MiSeq PID libraries with multiplexed primers. Viral RNA was extracted from plasma samples using the QIAamp viral RNA mini kit (QIAGEN, Hilden, Germany). Complementary DNA (cDNA) was synthesized using a cDNA primer mixture targeting protease (PR) with a block of random nucleotides in each cDNA primer serving as the PID, and SuperScript III RT (Thermo Fisher). After two rounds of bead purification of the cDNA, we amplified the cDNA using a mixture of a forward primer that targeted the upstream coding region, followed by a second round of PCR to incorporate the Illumina adaptor sequences. Gel-purified libraries were pooled and sequenced using the MiSeq 300 base paired-end sequencing protocol (Illumina). The sequencing covered the HIV-1 PR region (HXB2 2648-2914, 3001-3257).
We used the Illumina bcl2fastq pipeline for the initial processing and constructed template consensus sequences (TCSs) with TCS pipeline version 1.33 (https://github.com/SwanstromLab/PID) ([Zhou, 2019]). We then aligned TCSs to an HXB2 reference to remove sequences not at the targeted region or that had large deletions. We used the Entropy tool at LANL (https://www.hiv.lanl.gov/content/sequence/ENTROPY/entropy.html) to calculate entropy for each specimen. The sequencing data is available at NIH Sequencing Read Archive (SRA) under BioProject ID PRJNA853351.

Experiment [3] concerns the target T2, I84V mutant protease (Human immunodeficiency virus type 1 group M subtype B, UniProt P12497, I572V/Q495K).
T2 construct: the gene encoding the desired HIV-1 protease was subcloned into the heat-inducible pXC35 expression vector; made in house
More on the design: method as in Lockbaum et al. (ACS Infect Dis. 2019 Feb 8; 5 (2): 316–325). The settings on record: I84V drug-resistant protease variant; previously reported; ref Lockbaum et al. (ACS Infect Dis. 2019 Feb 8; 5 (2): 316–325); cited from earlier work.

Experiment [4] has as its system wild-type virus NL4-3. As to the kind of experiment: TZM infection assay (cell culture-based viral inhibition), wild-type virus. More on the design: species or system HIV-1. The settings on record: Human immunodeficiency virus 1, NL43; wild-type NL4-3 virus; concentration at time of virus production reducing infectivity by 50%; TZM-bl readout. The method, then:
PI dilutions were prepared by taking 10 µM stocked and performing a fivefold serial dilution using RPMI media (final drug concentration is […]). One dilution of drug was added to each well of a 24-well plate and repeated so each virus would have a full set of dilutions. Viruses for the assay were made by seeding 3 × 10^6 CEM cells in a 24-well plate and incubating with 250 µl of virus at 37°C for 2–3 hr before bringing the culture to 10 ml with RPMI media. After 48 hr, the medium was changed and repeated every 48 hr after until the culture had undergone CPE. Infected CEM cells were collected and diluted so that 1 ml of cells could be plated in each well containing a unique drug dilution. Then 24 hr later the virus supernatant was collected from each well followed by filtering through a […] then placed in –80°C. Viruses were thawed and added to 96-well plates in triplicate. TZM-bl cells were collected and diluted to a concentration of 2 × 10^5 cells/ml, 100 µl were added on top of the pre-plated viruses. Plates were kept in 37°C, 5% CO2 in an incubator for 48 hr. After 48 hr, the cells in the plates were lysed by removing the medium, washing two times with 100 µl PBS, and then lysed with 1× lysis buffer (made from 5× Promega Firefly Lysis Buffer). Plates were frozen for at least 24 hr and then thawed for 2 hr before analyzing with Promega Firefly Luciferase Kit on a luminometer. Data was analyzed with Prism 7 to fit sigmoidal dose–response curves.

In experiment [5] the target is T3, wild-type NL4-3 protease (Human immunodeficiency virus type 1 group M subtype B, UniProt P12497, Q495K).
T3 construct: the gene encoding the desired HIV-1 protease was subcloned into the heat-inducible pXC35 expression vector; made in house
More on the design: method as in Lockbaum et al. (ACS Infect Dis. 2019 Feb 8; 5 (2): 316–325). To be noted: previously reported, ref Lockbaum et al. (ACS Infect Dis. 2019 Feb 8, 5 (2): 316–325), read-out: Ki WT; cited from earlier work.

Broadly, the Ki is a measure of affinity in units of concentration, obtained from inhibition or displacement. A word on the EC50: it is the concentration that produces a half-maximal response. High values mean a less potent agent, low ones a more potent agent.

Take `CC[C@H](C)CN(C[C@@H](O)[C@H](Cc1ccccc1)NC(=O)O[C@H]1CO[C@H]2OCC[C@H]21)S(=O)(=O)c1ccc(N)cc1` [UMASS-1]: the Ki in experiment [1] is 0.11 ± 0.0088 nM; in experiment [3], 0.0261 ± 0.0037 nM; in experiment [5], less than 0.005 nM. For the same compound, the “Abundance of variant at the last time point” value in experiment [2] (variant 10I/16E/32I/33F/46I/54L/71V/76V/82I/84V) was 55.4%; in experiment [2] (variant 10I/16E/32I/33F/46I/54L/71V/76V/82I/84V/91S), 6.2%; in experiment [2] (variant 10I/32I/33F/46I/54L/71V/76V/82I/84V), 21.9%. In experiment [4], this compound registered an EC50 of 5.9 ± 1 nM.

These data come from paper PMC10065791 (eLife, 2023).
